Consider 34 molecules from patent US11685732B2, “MYST family histone acetyltransferase inhibitors” (Epizyme, Inc., priority 2017, dated 2023).

For assay [1], the target named is KAT-8 (Homo sapiens (Human), UniProt Q9H7Z6). Description: KAT-8 biochemical inhibition assay (SAMDI mass spectrometry). A digest of the protocol: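 Acetylation of 1 μM peptide substrate with 5 μM acetyl-CoA by 12.5 nM enzyme, compound pre-incubated, 2% DMSO, Tris pH 8.0 buffer with DTT, 25 °C for 90 min. Quench with 0.5% formic acid; product read by SAMDI mass spectrometry to give IC50.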

Assay [2] has as its target KAT-7 (Homo sapiens (Human), UniProt O95251). Description: KAT-7 biochemical inhibition assay (SAMDI mass spectrometry). The procedure, abridged: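 Read-out was SAMDI time-of-flight MS of formic acid-quenched reactions (0.5% final). Compound dilutions (2% DMSO final) were pre-incubated with 6 nM KAT-7 in 50 mM Tris pH 8.0 with 1 mM DTT, then given 1 μM peptide substrate and 2 μM acetyl-CoA for 120 min at 25 °C. IC50 values were derived.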

The target of assay [3] is KAT-5 (Homo sapiens (Human), UniProt Q92993). The experiment in a line: KAT-5 biochemical inhibition assay (SAMDI mass spectrometry). A digest of the protocol: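 Acetylation of 1 μM peptide by 9 nM enzyme with 0.5 μM acetyl-CoA (final) was run 90 min at 25° C in Tris pH 8.0 buffer with DTT, after compound preincubation at 2% DMSO. Formic acid stopped the reaction, and product was quantified by SAMDI mass spectrometry to derive IC50.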

The target in assay [4] is KAT-6A (Homo sapiens (Human), UniProt Q92794). The experiment in a line: KAT-6A biochemical inhibition assay (SAMDI mass spectrometry). A digest of the protocol: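 IC50 values came from SAMDI time-of-flight mass spectrometry after formic acid quench (0.5% final). Acetylation ran 90 min at 25 °C with 1 μM acetyl coenzyme A and 1 μM peptide substrate, following compound pre-incubation with 12.5 nM KAT-6A in Tris buffer pH 8.0 containing DTT, 2% DMSO final.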
KAT-6A, sequence (Q92794 other isoform, or with tags, fused parts or gaps): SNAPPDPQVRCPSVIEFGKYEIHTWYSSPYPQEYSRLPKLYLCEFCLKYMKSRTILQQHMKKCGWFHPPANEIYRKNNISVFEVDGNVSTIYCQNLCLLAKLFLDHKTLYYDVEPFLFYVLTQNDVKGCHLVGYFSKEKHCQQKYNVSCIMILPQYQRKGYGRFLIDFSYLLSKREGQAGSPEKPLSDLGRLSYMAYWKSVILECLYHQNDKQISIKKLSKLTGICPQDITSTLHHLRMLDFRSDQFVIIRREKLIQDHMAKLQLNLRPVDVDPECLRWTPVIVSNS

KAT-7, sequence (O95251 other isoform, or with tags, fused parts or gaps): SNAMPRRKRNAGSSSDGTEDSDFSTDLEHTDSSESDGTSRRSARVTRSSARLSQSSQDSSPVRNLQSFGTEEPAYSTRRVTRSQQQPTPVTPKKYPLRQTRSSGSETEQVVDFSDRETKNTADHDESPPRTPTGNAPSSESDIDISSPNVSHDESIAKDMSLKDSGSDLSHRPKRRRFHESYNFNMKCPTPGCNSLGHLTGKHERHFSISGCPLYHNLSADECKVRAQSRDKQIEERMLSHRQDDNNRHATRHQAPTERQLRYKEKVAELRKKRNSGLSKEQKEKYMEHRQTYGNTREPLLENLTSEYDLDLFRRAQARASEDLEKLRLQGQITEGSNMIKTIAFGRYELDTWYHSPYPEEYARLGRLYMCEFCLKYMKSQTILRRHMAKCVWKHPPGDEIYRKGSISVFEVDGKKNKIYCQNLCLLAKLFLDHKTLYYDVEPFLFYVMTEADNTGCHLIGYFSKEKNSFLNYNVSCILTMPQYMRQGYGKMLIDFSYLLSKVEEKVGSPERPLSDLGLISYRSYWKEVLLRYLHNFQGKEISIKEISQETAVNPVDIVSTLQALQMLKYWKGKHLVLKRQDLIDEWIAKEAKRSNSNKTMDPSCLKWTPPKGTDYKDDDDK
KAT-8, sequence (Q9H7Z6 other isoform, or with tags, fused parts or gaps): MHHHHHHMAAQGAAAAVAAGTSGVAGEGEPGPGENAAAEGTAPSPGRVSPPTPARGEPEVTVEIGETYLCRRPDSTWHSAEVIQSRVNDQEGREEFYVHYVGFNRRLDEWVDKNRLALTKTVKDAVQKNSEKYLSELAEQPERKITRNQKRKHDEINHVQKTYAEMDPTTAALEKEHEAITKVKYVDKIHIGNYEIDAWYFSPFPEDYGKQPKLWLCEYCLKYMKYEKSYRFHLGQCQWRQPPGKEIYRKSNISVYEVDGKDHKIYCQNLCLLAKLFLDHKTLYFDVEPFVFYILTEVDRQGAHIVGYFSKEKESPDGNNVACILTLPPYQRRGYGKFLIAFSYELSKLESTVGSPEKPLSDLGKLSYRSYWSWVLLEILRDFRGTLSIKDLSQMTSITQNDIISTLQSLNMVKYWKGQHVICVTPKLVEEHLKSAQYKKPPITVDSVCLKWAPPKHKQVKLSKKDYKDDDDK
KAT-5, sequence (Q92993 other isoform, or with tags, fused parts or gaps): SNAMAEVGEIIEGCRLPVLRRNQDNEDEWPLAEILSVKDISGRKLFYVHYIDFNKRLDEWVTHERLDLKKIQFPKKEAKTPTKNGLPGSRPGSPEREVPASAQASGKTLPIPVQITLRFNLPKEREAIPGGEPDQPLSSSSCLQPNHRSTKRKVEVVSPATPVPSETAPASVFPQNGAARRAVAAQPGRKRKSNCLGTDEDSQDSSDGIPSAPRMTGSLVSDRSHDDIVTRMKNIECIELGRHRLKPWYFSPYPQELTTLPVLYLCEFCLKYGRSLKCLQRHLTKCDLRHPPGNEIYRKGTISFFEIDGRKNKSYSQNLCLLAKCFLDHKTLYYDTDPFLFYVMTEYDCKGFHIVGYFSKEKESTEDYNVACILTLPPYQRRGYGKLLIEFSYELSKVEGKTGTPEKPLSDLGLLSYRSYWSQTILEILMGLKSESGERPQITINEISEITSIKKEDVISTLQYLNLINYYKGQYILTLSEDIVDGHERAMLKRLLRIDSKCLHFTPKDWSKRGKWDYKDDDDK

Regarding `Cn1cnc(-c2cc(Cl)c(F)c(C(=O)NNS(=O)(=O)N3CCOCC3)c2)c1` [Compound I-108], the IC50 in assay [1] is 10 to 50 µM; in assay [2] it was below 10 µM; in assay [3], 10 to 50 µM; in assay [4] it was 10 to 50 µM.
As to `CCNC(=O)N[C@H]1CC[C@H](CS(=O)(=O)NNC(=O)c2cc(-c3cn(C)cn3)cc(Cl)c2F)CC1` [Compound I-109], the IC50 was 10 to 50 µM in assay [1], below 10 µM in assay [2], below 10 µM in assay [3] and below 10 µM in assay [4].
Turning to `Cn1cnc(-c2cc(Cl)c(F)c(C(=O)NNS(=O)(=O)c3ccccc3)c2)c1` [Compound I-110], the IC50 was 10 to 50 µM in assay [1], below 10 µM in assay [2], below 10 µM in assay [3] and below 10 µM in assay [4].
Take `Cn1cnc(-c2cc(Cl)c(F)c(C(=O)NNS(=O)(=O)Cc3ccccc3)c2)c1` [Compound I-111]: the IC50 was 10 to 50 µM in assay [1], below 10 µM in assay [2], below 10 µM in assay [3] and below 10 µM in assay [4].
On to `CCNC(=O)N[C@H]1C[C@H](CS(=O)(=O)NNC(=O)c2cc(-c3cn(C)cn3)cc(Cl)c2F)C1` [Compound I-112], for which the IC50 in assay [1] is 10 to 50 µM; in assay [2], below 10 µM; in assay [3], below 10 µM; in assay [4], 10 to 50 µM.
Turning to `Cn1cnc(-c2cc(Cl)c(F)c(C(=O)NNS(=O)(=O)C[C@H]3C[C@@H](N)C3)c2)c1` [Compound I-113], the half-inhibitory concentration (IC50) in assay [1] is 10 to 50 µM; in assay [2], below 10 µM; in assay [3] it was 10 to 50 µM; in assay [4], 10 to 50 µM.
Turning to `Cn1cnc(-c2cc(Cl)c(F)c(C(=O)NNS(=O)(=O)C[C@H]3C[C@@H](NC(=O)OC(C)(C)C)C3)c2)c1` [Compound I-114], the IC50 was 10 to 50 µM in assay [1], below 10 µM in assay [2], below 10 µM in assay [3] and below 10 µM in assay [4].
Consider `Cn1cnc(-c2cc(Cl)c(F)c(C(=O)NNS(=O)(=O)CC3CCCC(NC(N)=O)C3)c2)c1` (stereo not shown) [Compound I-115], for which the IC50 is 10 to 50 µM in assay [1], below 10 µM in assay [2], below 10 µM in assay [3] and below 10 µM in assay [4].
For `CC(=O)N[C@H]1C[C@@H](CS(=O)(=O)NNC(=O)c2cc(-c3cn(C)cn3)cc(Cl)c2F)C1` [Compound I-116], the IC50 in assay [1] is 10 to 50 µM; in assay [2], below 10 µM; in assay [3] it was below 10 µM; in assay [4], below 10 µM.
Take `Cn1cnc(-c2cc(Cl)c(F)c(C(=O)NNS(=O)(=O)C[C@@H]3CCN(C(=O)OC(C)(C)C)C3)c2)c1` [Compound I-117]: the IC50 is 10 to 50 µM in assay [1], below 10 µM in assay [2], below 10 µM in assay [3] and below 10 µM in assay [4].
As to `CNC(=O)NC1CCCC(CS(=O)(=O)NNC(=O)c2cc(-c3cn(C)cn3)cc(Cl)c2F)C1` (stereo not shown) [Compound I-118], the IC50 is 10 to 50 µM in assay [1], below 10 µM in assay [2], below 10 µM in assay [3] and below 10 µM in assay [4].
In the case of `COCCc1nc(-c2cc(Cl)c(F)c(C(=O)NNS(=O)(=O)C3CCOCC3)c2)cn1C` [Compound I-119], the IC50 in assay [1], in assay [2], in assay [3] and in assay [4] was 10 to 50 µM in each case.
`Cn1cnc(-c2cc(Cl)c(F)c(C(=O)NNS(=O)(=O)C[C@@H]3CCNC3)c2)c1` [Compound I-120]: the IC50 in assay [1] is 10 to 50 µM; in assay [2], below 10 µM; in assay [3] it was 10 to 50 µM; in assay [4], 10 to 50 µM.
Take `Cn1cnc(-c2cc(Cl)c(F)c(C(=O)NNS(=O)(=O)C[C@H]3CCNC3)c2)c1` [Compound I-121]: the IC50 in assay [1] is 10 to 50 µM; in assay [2], below 10 µM; in assay [3], 10 to 50 µM; in assay [4] it was 10 to 50 µM.
For `Cn1cnc(-c2cc(Cl)c(F)c(C(=O)NNS(=O)(=O)C[C@H]3CCN(C(=O)OC(C)(C)C)C3)c2)c1` [Compound I-122], the IC50 in assay [1] is 10 to 50 µM; in assay [2], below 10 µM; in assay [3], 10 to 50 µM; in assay [4] it was 10 to 50 µM.
`Cn1cnc(-c2cc(Cl)c(F)c(C(=O)NNS(=O)(=O)C[C@H]3C[C@H](N)C3)c2)c1` [Compound I-123]: the IC50 in assay [1] was 10 to 50 µM; in assay [2], below 10 µM; in assay [3], 10 to 50 µM; in assay [4], 10 to 50 µM.
`Cn1cnc(-c2cc(Cl)c(F)c(C(=O)NNS(=O)(=O)C[C@H]3C[C@H](NC(=O)OC(C)(C)C)C3)c2)c1` [Compound I-124]: the IC50 in assay [1] was 10 to 50 µM; in assay [2], below 10 µM; in assay [3] it was below 10 µM; in assay [4] it was below 10 µM.
Regarding `CC(=O)N[C@H]1C[C@H](CS(=O)(=O)NNC(=O)c2cc(-c3cn(C)cn3)cc(Cl)c2F)C1` [Compound I-125], the IC50 is 10 to 50 µM in assay [1], below 10 µM in assay [2], 10 to 50 µM in assay [3] and 10 to 50 µM in assay [4].
Take `CCn1cnc(-c2cc(C)c(F)c(C(=O)NNS(=O)(=O)C3CCCCC3)c2)c1` [Compound I-126]: the IC50 in assay [1] is above 100 µM; in assay [2] it was below 10 µM; in assay [3] it was below 10 µM; in assay [4], 10 to 50 µM.
For `Cc1cc(-c2cn(C)cn2)cc(C(=O)NNS(=O)(=O)C2CCCCC2)c1F` [Compound I-127], the half-inhibitory concentration (IC50) was above 100 µM in assay [1], below 10 µM in assay [2], below 10 µM in assay [3] and 10 to 50 µM in assay [4].
For `Cc1cc(-c2cn(C)cn2)cc(C(=O)NNS(=O)(=O)Cc2ccccc2)c1F` [Compound I-128], the IC50 is above 100 µM in assay [1], below 10 µM in assay [2], 10 to 50 µM in assay [3] and 10 to 50 µM in assay [4].
`Cc1cc(-c2cn(C)cn2)cc(C(=O)NNS(=O)(=O)CC2CCCCC2)c1F` [Compound I-129]: the concentration for half-maximal inhibition (IC50) is above 100 µM in assay [1], below 10 µM in assay [2], below 10 µM in assay [3] and below 10 µM in assay [4].
On to `Cc1cc(-c2cn(C)cn2)cc(C(=O)NNS(=O)(=O)CC2CCOCC2)c1F` [Compound I-130], for which the IC50 is above 100 µM in assay [1], below 10 µM in assay [2], below 10 µM in assay [3] and 10 to 50 µM in assay [4].
As for `Cc1cc(-c2cn(C)cn2)cc(C(=O)NNS(=O)(=O)C2CCOCC2)c1F` [Compound I-131], the IC50 in assay [1] is above 100 µM; in assay [2], below 10 µM; in assay [3], 10 to 50 µM; in assay [4], 10 to 50 µM.
For the molecule `Cc1cc(-c2cn(C)cn2)cc(C(=O)NNS(=O)(=O)CC2CCCN(C(=O)OC(C)(C)C)C2)c1F` (stereo not shown) [Compound I-132], the IC50 was above 100 µM in assay [1], below 10 µM in assay [2], below 10 µM in assay [3] and below 10 µM in assay [4].
With `Cc1cc(-c2cn(C)cn2)cc(C(=O)NNS(=O)(=O)CC2CCCNC2)c1F` (stereo not shown) [Compound I-133], the IC50 in assay [1] was above 100 µM; in assay [2], below 10 µM; in assay [3] it was above 100 µM; in assay [4], above 100 µM.
Regarding `COCCn1cnc(-c2cc(C)c(F)c(C(=O)NNS(=O)(=O)C3CCCCC3)c2)c1` [Compound I-134], the half-maximal inhibitory concentration (IC50) is above 100 µM in assay [1], below 10 µM in assay [2], 10 to 50 µM in assay [3] and above 100 µM in assay [4].
As for `COCCn1cnc(-c2cc(C)c(F)c(C(=O)NNS(=O)(=O)CC3CCCN(C(=O)OC(C)(C)C)C3)c2)c1` (stereo not shown) [Compound I-135], the half-inhibitory concentration (IC50) in assay [1] is above 100 µM; in assay [2] it was 10 to 50 µM; in assay [3], below 10 µM; in assay [4], 50 to 100 µM.
As to `COCCn1cnc(-c2cc(C)c(F)c(C(=O)NNS(=O)(=O)CC3CCCNC3)c2)c1` (stereo not shown) [Compound I-136], the IC50 in assay [1], in assay [2], in assay [3] and in assay [4] was above 100 µM each time.
Regarding `COCCn1cnc(-c2cc(C)c(F)c(C(=O)NNS(=O)(=O)CC3CCCN(C(=O)COC)C3)c2)c1` (stereo not shown) [Compound I-137], the IC50 in assay [1] was above 100 µM; in assay [2], 10 to 50 µM; in assay [3], 10 to 50 µM; in assay [4], 50 to 100 µM.
For `COCCn1cnc(-c2cc(C)c(F)c(C(=O)NNS(=O)(=O)C3CCOCC3)c2)c1` [Compound I-138], the IC50 is above 100 µM in assay [1], 50 to 100 µM in assay [2], 10 to 50 µM in assay [3] and above 100 µM in assay [4].
With `Cc1cc(-c2cn(C(C)C)cn2)cc(C(=O)NNS(=O)(=O)C2CCCCC2)c1F` [Compound I-139], the IC50 in assay [1] is above 100 µM; in assay [2] it was below 10 µM; in assay [3], 10 to 50 µM; in assay [4] it was above 100 µM.
As to `COCCn1cnc(-c2cc(C)c(F)c(C(=O)NNS(=O)(=O)CC3CCOCC3)c2)c1` [Compound I-140], the half-inhibitory concentration (IC50) was above 100 µM in assay [1], below 10 µM in assay [2], 10 to 50 µM in assay [3] and 10 to 50 µM in assay [4].
Consider `COCC(=O)N1CCCC(CS(=O)(=O)NNC(=O)c2cc(-c3cn(C)cn3)cc(C)c2F)C1` (stereo not shown) [Compound I-141], for which the IC50 in assay [1] is above 100 µM; in assay [2], below 10 µM; in assay [3], below 10 µM; in assay [4], below 10 µM.
